Patent US9228175B2, “Genes encoding a novel type of lysophophatidylcholine acyltransferases and their use to increase triacylglycerol production and/or modify fatty acid composition” (National Research Counsel of Canada, priority 2006, dated 2016)

What was measured:
[1] = tested on: lca1Δ yeast mutant (Y02431); format: cell-based, Saccharomyces cerevisiae
Description: (§1) Cells were frown first in SC-URA+2% glucose media overnight then in protein expression induction media for six hours. Cultures were diluted to OD600 value of OD600 0.5, 1, 2, 3, respectively, from which 5 μl were inoculated (from left to right) onto YPD plate containing lyso-PAF or lyso-PC. The plates were incubated at 28° C. for 36 hours.
(§2) Lyso-PAF sensitivity: Yeast strains Y02431 over-expressing LCA1 or harboring empty vector were first grown in 15 ml of SC-ura medium containing 2% glucose then transferred to SC-ura+2% galactose and 1% raffinose. After 12 hours LCA1 expression induction, the culture was diluted to correspond to OD600 value of 0.5, 1, 2, 3, 4. Five μl of each dilution was spotted to a YPD plate supplemented with varying concentrations of Lyso-PAF. The plates were incubated at 28° C. for two days.
Lyso-PAF sensitivity: Yeast strains BY02431 carrying pYES 2.1-AtLPCATs or the empty vector were first grown in 15 ml of SC-Leu-His-ura medium containing 2% glucose. Yeast transformant strains of AtLPCATs were first grown in YPD overnight. Protein expression induction were carried out by protocol described in Invitrogen manufacturer manual for yeast expression vector pYES2.1. After 12 hours induction, 5 μl cultures were inoculated onto YPD plate with 10 μg/ml lysoPAF. The plates were incubated at 28° C. for two days. The final lysoPAF is 10/ml.

LCA1 (YOR175c) = target: T1, LCA1 (YOR175c) (Saccharomyces cerevisiae, UniProt Q08548); experiment: In vitro assay of LPCAT activity: substrate specificity and kinetics of LCA1 (YOR175c); format: biochemical; settings: for Rate of acylation as % of the activity registered for LPC: [^14C] palmitoyl-CoA as acyl donor, 50 μM lysophospholipid, microsomes of lca1Δ expressing YOR175c
T1 construct: Saccharomyces cerevisiae YOR175c ORF was PCR-amplified; made in house; host or cells: S. cerevisiae YOR175c deletion strain Y02431 (lca1Δ), pYES2.1, galactose induction; microsomal fraction
T1 sequence (Q08548 1-619): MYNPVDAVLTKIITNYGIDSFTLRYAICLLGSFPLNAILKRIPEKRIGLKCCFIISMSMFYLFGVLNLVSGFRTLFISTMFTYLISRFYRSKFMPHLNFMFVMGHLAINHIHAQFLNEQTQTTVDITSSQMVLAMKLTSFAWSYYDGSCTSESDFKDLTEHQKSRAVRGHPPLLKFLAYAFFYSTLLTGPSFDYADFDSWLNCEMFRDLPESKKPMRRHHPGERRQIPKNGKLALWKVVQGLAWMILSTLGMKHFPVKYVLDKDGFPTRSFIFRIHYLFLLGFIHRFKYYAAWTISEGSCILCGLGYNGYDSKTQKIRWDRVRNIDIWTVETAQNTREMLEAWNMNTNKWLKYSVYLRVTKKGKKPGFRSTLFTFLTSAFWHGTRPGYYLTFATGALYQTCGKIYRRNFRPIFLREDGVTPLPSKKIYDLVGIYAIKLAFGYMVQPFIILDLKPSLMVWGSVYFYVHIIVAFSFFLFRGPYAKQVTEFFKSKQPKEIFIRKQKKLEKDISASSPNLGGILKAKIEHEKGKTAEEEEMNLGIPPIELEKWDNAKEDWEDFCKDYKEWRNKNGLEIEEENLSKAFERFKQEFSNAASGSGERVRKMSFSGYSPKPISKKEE
Description: FIG. 11 is a graph showing the substrate specificity of LCA1. The assays were performed with 3 μg microsomal protein from lca1Δ harboring an empty vector (V0) and lca1Δ expressing LCA1. The reaction contained 112.5 μm [^14C] palmitoyl-CoA (5.5 nCi/nmol) and 50 μM lysophospholipid substrate (LPA, LPC, LPE, LPG, LPI, and LPS). Reaction was allowed for two minutes with 100 rpm shaking. The results are presented as a mean of three assays.
(§3) Microsomal preparation: Yeast strains were first grown in 15 ml of SC-Leu-His-Ura medium containing 2% glucose. Protein expression induction was carried out as described in Invitrogen manufacturer manual for yeast expression vector pYES2.1. After 24 hours of growth in SC+2% galactose+1% raffinose induction conditions, the cells were washed, first with distilled water and then with wall-breaking buffer (50 mM Tris-HCl, 1 mM EDTA, 0.6 M sorbitol, pH 7.4, 1 mM DTT). After centrifugation at 4,000 rpm (Eppendorf Centrifuge 5145C), the cells were resuspended in 1 ml wall-breaking buffer with 10 μl yeast protease cocktail (Sigma), and shaken vigorously in the presence of acid-washed glass beads (diameter 0.5 mm). The resultant homogenate was centrifuged at 12,000 rpm for ten minutes at 4° C. The decanted supernatant was further centrifuged at 100,000×g for 90-120 minutes at 4° C. The supernatant was discarded, and the pellet was suspended in homogenization buffer containing 20% glycerol and frozen at −80° C. until use. Protein concentration was measured using Bio-Rad Protein Assay Kit for final enzyme activity calculation.
(§4) In Vitro Assay of LPCAT activity: LPCAT substrate specificity was determined by measuring incorporation of [^14C] lysophosphatidylcholine or [^14C] palmitoyl-CoA into phosphatidylcholine. All assays were performed at least twice. For lysophospholipid substrate specificity assessment, 400 μl HEPES buffer contained 3 μg microsomal protein, 50 μM of lysophospholipid substrates and 112.5 μM [^14C] palmitoyl-CoA (5.5 nCi/nmol). For acyl-CoA substrate selectivity analysis, 400 μl HEPES reaction buffer (pH7.4, 0.1 M) contained 3 μg microsomal protein, 50 μM acyl-CoA and 112.5 μM [^14C] […] (1.35 nCi/nmol). Reaction was allowed for 2 minutes at 30° C. with 100 rpm shaking. The reaction products were extracted with chloroform/methanol (2/1, v/v) and separated with Merck silica G60 TLC plates. Spots corresponding to different phospholipid species products were scraped off and ^14C incorporation were scintillation counted. Different concentrations of ZnCl2 were added in to reactions for Zn^2+ inhibitory effect assay.

LCA1 = target: T2, LCA1 (Saccharomyces cerevisiae, UniProt Q08548); experiment: Zn^2+ / Mg^2+ effect on LPCAT activity of LCA1 (in vitro assay, microsomes of lca1Δ over-expressing LCA1); format: biochemical; settings: concentration ranging from 5 to 40 μM (data not shown)
T2 construct: Saccharomyces cerevisiae YOR175c ORF was PCR-amplified; made in house; host or cells: S. cerevisiae YOR175c deletion strain Y02431 (lca1Δ), pYES2.1, galactose induction; microsomal fraction
T2 sequence (Q08548 1-619): T1 sequence (Q08548 1-619)
Description: as §3, §4
Results are expressed as means±S.D. The lca1Δ over-expressing LCA1 was used to assess Zn^2+ effect. The reactions contained 5.6 μM palmitoyl-LPC (1.35 nCi/nmol), 1.5 μg microsomal proteins, 0.1 M HEPES (pH 7.4), 11.25 μM stearyl-CoA and indicated concentration of ZnCl2. The reaction was stopped after two minutes by adding 2 ml of chloroform/methanol solution (2:1).

[2] = tested on: parental (WT) yeast strain; experiment: Lyso-PAF and lyso-PC sensitivity plate test, parental strain; format: cell-based, Saccharomyces cerevisiae; settings: plate assay
Description: as §1, §2

1-O-alkyl-sn-glycero-3-phosphocholine [lyso-PAF]
Growth of lpcat yeast mutant ([1]; 10 ug/ml on YPD plate): incapable of growth
Concentration above which hypersensitivity is displayed ([1]; lca1Δ mutant, plate assay): above 5 μg/ml

CCCCCCCCCCCCCCCC(=O)OC[C@@H](O)COP(=O)([O-])OCC[N+](C)(C)C [LPC (16:0), palmitic (16:0)-LPC]
Concentration above which inhibitory effects on LPCAT activity are exerted (LCA1 (YOR175c); data not shown): above 75 μM

[Mg+2] [Mg^2+]
Effect on LPCAT activity of LCA1 (LCA1): did not detect significant effect

lysophosphatidylcholine [LPC]
Level tolerated ([1]; lca1Δ, plate assay): up to 20 μg/ml
Acyltransferase activity among lysophospholipid substrates (LCA1 (YOR175c); [^14C] palmitoyl-CoA, LPA, LPC, LPE, LPG, LPI, LPS compared): highest activity
Level tolerated [2]: up to 20 μg/ml

lysophosphatidylethanolamine [LPE]
Rate of acylation as % of the activity registered for LPC (LCA1 (YOR175c)): ~20%

lysophosphatidylglycerol [LPG]
Rate of acylation as % of the activity registered for LPC (LCA1 (YOR175c)): approximately 60%

B1: LCA1: yeast (S. cerevisiae) LPC acyltransferase encoded by YOR175c, SEQ ID NO:2 (protein, listed as Saccharomyces cerevisiae)
chain: T1 sequence (Q08548 1-619)
Vmax (LCA1 (YOR175c); Lineweaver-Burk double-reciprocal plot): 524 pmol/min/μg protein
Km (LCA1 (YOR175c); Lineweaver-Burk double-reciprocal plot, read-out: apparent Km for acyl-CoA): 0.89 ± 0.25 µM
Increase in lyso-PAF acyltransferase activity on over-expression (LCA1 (YOR175c); lyso-PAF as acyl acceptor): 86.3 fold
